Test results as given in patent US20240425513A1, “OXAZOLE, OXADIAZOLE, AND INDOLE DERIVATIVES FOR THE INHIBITION OF USP28” (Carmot Therapeutics, Inc., priority 2021, published 2024).

Target: His6 USP28 (Homo sapiens (Human), UniProt Q96RU2)
Test: Ubiquitin-Rhodamine 110 assay to determine USP28 IC50
Type: biochemical
Settings: USP28 150 pM, Ub-Rho110 41 nM, 2 h pre-incubation with enzyme, fluorescence read
Method: Example 21. Ubiquitin-Rhodamine 110 Assay to Determine USP28 IC50
Each assay was performed in a final volume of 8 μl in assay buffer containing 10 mM HEPES pH 7.3 ((1 M, pH 7.3 solution, (VWR J848), 100 mM NaCl (5 M, Corning 46-032-CV), 0.01% Triton X-100 (Sigma #T8787), 3.5 mM DTT (1 M, Sigma #43819) and 0.00375% BSA (10%, Calbiochem, #126609)). The assay buffer pH was adjusted to 7.5 using 1 N NaOH (JT Baker, #5000-03). Stock compounds were stored at −80° C. as a 25 mM in DMSO solution along with their respective 20 point 2 fold serial dilutions. For the dose responses, stock compound plates were allowed to come to room temperature the day of the assay. […] of the serial dilution series were pre stamped into assay plates (Black, high base, medium binding, Greiner #782076) for a final top screening concentration of 125 μM (DMSO final concentration=0.5%). Enzyme (His6 USP28, BostonBiochem, #E-570) concentration and incubation times were optimized for the maximal signal to background while maintaining the initial velocity conditions at a fixed substrate concentration. The final concentration of the enzyme in the assay was 150 pM. Final substrate (Ub-Rhol10, Ubiquitin-Rhodamine 110, UBPBio, #M3020) concentration was 41 nM. 2 μl of 4× enzyme was added to assay plates (pre stamped with compound) and incubated for 2 h at room temperature. […] was subsequently added to the assay plates and incubated for 2 h at room temperature. Fluorescence was then read on the Envision (Excitation 485 nm and Emission at 535 nm, Perkin Elmer).

Sequence of His6 USP28 (Q96RU2 whole entry): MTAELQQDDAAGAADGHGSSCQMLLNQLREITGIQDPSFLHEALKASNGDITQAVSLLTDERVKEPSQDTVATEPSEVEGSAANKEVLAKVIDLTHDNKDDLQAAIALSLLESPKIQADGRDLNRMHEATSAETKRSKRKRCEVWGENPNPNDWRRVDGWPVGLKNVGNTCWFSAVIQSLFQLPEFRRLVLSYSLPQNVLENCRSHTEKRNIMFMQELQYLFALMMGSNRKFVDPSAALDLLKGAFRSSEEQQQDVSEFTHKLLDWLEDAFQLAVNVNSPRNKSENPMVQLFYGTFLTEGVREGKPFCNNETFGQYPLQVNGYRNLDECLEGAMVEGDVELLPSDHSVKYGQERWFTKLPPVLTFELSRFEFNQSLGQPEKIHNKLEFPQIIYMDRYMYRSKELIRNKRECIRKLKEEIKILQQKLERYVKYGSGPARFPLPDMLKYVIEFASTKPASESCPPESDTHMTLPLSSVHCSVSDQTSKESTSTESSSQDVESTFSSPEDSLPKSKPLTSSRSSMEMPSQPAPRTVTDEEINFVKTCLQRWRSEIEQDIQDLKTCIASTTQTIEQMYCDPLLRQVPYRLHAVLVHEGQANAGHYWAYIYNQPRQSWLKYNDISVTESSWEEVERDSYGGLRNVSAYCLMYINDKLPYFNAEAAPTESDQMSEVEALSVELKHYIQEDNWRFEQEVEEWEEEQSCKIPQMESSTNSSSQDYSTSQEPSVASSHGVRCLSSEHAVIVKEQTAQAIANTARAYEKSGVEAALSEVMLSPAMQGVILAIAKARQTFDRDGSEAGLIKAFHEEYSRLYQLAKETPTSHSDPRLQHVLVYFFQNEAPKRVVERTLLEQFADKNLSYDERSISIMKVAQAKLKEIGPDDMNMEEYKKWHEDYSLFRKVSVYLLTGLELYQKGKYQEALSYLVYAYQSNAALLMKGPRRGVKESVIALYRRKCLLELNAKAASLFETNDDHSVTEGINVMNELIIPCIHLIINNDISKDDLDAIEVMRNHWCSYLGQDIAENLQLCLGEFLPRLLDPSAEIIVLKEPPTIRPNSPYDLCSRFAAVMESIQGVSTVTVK

| Compound | IC50 [nM] |
| --- | --- |
| Cc1oc(Cc2cccc(Cl)c2)nc1-c1ccc(/C=C/C(=O)N[C@@H]2C[C@@H](C)N(C#N)C2)cc1 [Compound 14, (E)-3-(4-(2-(3-Chlorobenzyl)-5-methyloxazol-4-yl)phenyl)-N-((3R,5R)-1-cyano-5-methylpyrrolidin-3-yl)acrylamide] | 50 to 500 |
| CN(C)C(=O)c1ccc(OCc2ccc(-c3nc(Cc4cccc(Cl)c4)no3)cc2)cc1 [Compound 18, 4-((4-(3-(3-Chlorobenzyl)-1,2,4-oxadiazol-5-yl)benzyl)oxy)-N,N-dimethylbenzamide] | 50 to 500 |
| C[C@@H]1C[C@@H](NC(=O)COc2ccc(-c3nc(Cc4ccc(Cl)cc4)no3)cc2)CN1C#N [Compound 4, 2-(4-{3-[(4-Chlorophenyl)methyl]-1,2,4-oxadiazol-5-yl}phenoxy)-N-[(3R,5R)-1-cyano-5-methylpyrrolidin-3-yl]acetamide] | 50 to 500 |
| CC(=O)N1CCN(C(=O)c2cc3cc(OCc4ccccc4)ccc3[nH]2)C[C@@H]1C(=O)N[C@H]1C[C@@H](C)N(C#N)C1 [Compound 42] | 50 to 500 |
| CN[C@H]1CCN(C(=O)c2ccc(COc3ccc(-c4nc(Cc5cccc(Cl)c5)oc4C)cc3)nc2)C1 [Compound 35, (3S)-1-{6-[(4-{2-[(3-Chlorophenyl)methyl]-5-methyl-1,3-oxazol-4-yl}phenoxy)methyl]pyridine-3-carbonyl}-N-methylpyrrolidin-3-amine] | < 50 |
| Cc1oc(Cc2cccc(Cl)c2)nc1-c1ccc(OCc2ccc(C(=O)N(C)C)cn2)cc1 [Compound 24, 6-[(4-{2-[(3-Chlorophenyl)methyl]-5-methyl-1,3-oxazol-4-yl}phenoxy)methyl]-N,N-dimethylpyridine-3-carboxamide] | < 50 |
| Cc1oc(Cc2cnn(C)c2)nc1-c1ccc(OCc2ccc(C(=O)N(C)C)cn2)cc1 [Compound 30] | 50 to 500 |
| C[C@@H]1C[C@@H](NC(=O)Cc2ccc(-c3nc(Cc4cccc(Cl)c4)no3)cc2)CN1C#N [Compound 16, 2-(4-{3-[(3-Chlorophenyl)methyl]-1,2,4-oxadiazol-5-yl}phenyl)-N-[(3R,5R)-1-cyano-5-methylpyrrolidin-3-yl]acetamide] | > 1000 |
| COc1cccc(Cc2noc(-c3ccc(OCC(=O)N[C@@H]4C[C@@H](C)N(C#N)C4)cc3)n2)c1 [Compound 7, N-[(3R,5R)-1-Cyano-5-methylpyrrolidin-3-yl]-2-(4-{3-[(3-methoxyphenyl)methyl]-1,2,4-oxadiazol-5-yl}phenoxy)acetamide] | > 1000 |
| C[C@@H]1C[C@@H](NC(=O)COc2ccc(-c3nc(Cc4cccc(Cl)c4)no3)nc2)CN1C#N [Compound 12, 2-[(6-{3-[(3-Chlorophenyl)methyl]-1,2,4-oxadiazol-5-yl}pyridin-3-yl)oxy]-N-[(3R,5R)-1-cyano-5-methylpyrrolidin-3-yl]acetamide] | > 1000 |
| Cc1oc(Cc2cccc(Cl)c2)nc1-c1ccc(COc2ccc(C(=O)N(C)C)cc2)cc1 [Compound 21, 4-((4-(2-(3-Chlorobenzyl)-5-methyloxazol-4-yl)benzyl)oxy)-N,N-dimethylbenzamide] | < 50 |
| C[C@@H]1C[C@@H](NC(=O)/C=C/c2cccc(-c3nc(Cc4cccc(Cl)c4)no3)c2)CN1C#N [Compound 17, (2E)-3-(3-{3-[(3-Chlorophenyl)methyl]-1,2,4-oxadiazol-5-yl}phenyl)-N-[(3R,5R)-1-cyano-5-methylpyrrolidin-3-yl]prop-2-enamide] | > 1000 |
| Cc1oc(Cc2ccnc(Cl)c2)nc1-c1ccc(OCc2ccc(C(=O)N(C)C)cn2)cc1 [Compound 31, 6-[(4-{2-[(2-Chloropyridin-4-yl)methyl]-5-methyl-1,3-oxazol-4-yl}phenoxy)methyl]-N,N-dimethylpyridine-3-carboxamide] | 50 to 500 |
| Cc1oc(Cc2cccc(Cl)c2)nc1-c1ccc(OCc2ncc(C(=O)N(C)C)cn2)cc1 [Compound 26, 2-[(4-{2-[(3-Chlorophenyl)methyl]-5-methyl-1,3-oxazol-4-yl}phenoxy)methyl]-N,N-dimethylpyrimidine-5-carboxamide] | < 50 |
| Cc1oc(Cc2cccc(Cl)c2)nc1-c1ccc(OCc2ccc(C(=O)N(C)C)nn2)cc1 [Compound 25, 6-[(4-{2-[(3-Chlorophenyl)methyl]-5-methyl-1,3-oxazol-4-yl}phenoxy)methyl]-N,N-dimethylpyridazine-3-carboxamide] | < 50 |
